ChEMBL document CHEMBL3774310, “Discovery of antitumor anthra[2,3-b]furan-3-carboxamides: Optimization of synthesis and evaluation of antitumor properties” (Eur J Med Chem, 2016)

Legend:
[1] = test system: Mus musculus; assay: Toxicity in DBA2/BDF1 mouse transplanted with mouse P388 cells assessed as spleen mass at 50 mg/kg, ip dosed daily for 5 days (reference value: 142 mg); type: organism-based; settings: in vivo, 120 h
[2] = test system: P388; assay: Antitumor activity against mouse P388 cells transplanted in DBA2/BDF1 mouse assessed as mean life span at 40 mg/kg, ip dosed daily for 5 days (reference value: 9.6 +/- 0.5 day); type: functional
[3] = test system: Mus musculus; assay: Toxicity in DBA2/BDF1 mouse transplanted with mouse P388 cells assessed as reduction in spleen mass at 50 mg/kg, ip dosed daily for 5 days relative to control; type: organism-based; design: scale not given: the % may be the effect or the level left; settings: in vivo, 120 h
[4] = test system: P388; assay: Antitumor activity against mouse P388 cells transplanted in DBA2/BDF1 mouse assessed as mean life span at 20 mg/kg, ip dosed daily for 5 days (reference value: 9.6 +/- 0.5 day); type: functional
[5] = molecular target: Serine/threonine-protein kinase tousled-like 1 (Homo sapiens, UniProt Q9UKI8); assay: Inhibition of human N-terminal FLAG, C-terminal HIS8-tagged TLK1 expressed in sf9 cells by flashplate based radiometric 33pan-quinase assay
Chain of Serine/threonine-protein kinase tousled-like 1 (Q9UKI8 whole entry): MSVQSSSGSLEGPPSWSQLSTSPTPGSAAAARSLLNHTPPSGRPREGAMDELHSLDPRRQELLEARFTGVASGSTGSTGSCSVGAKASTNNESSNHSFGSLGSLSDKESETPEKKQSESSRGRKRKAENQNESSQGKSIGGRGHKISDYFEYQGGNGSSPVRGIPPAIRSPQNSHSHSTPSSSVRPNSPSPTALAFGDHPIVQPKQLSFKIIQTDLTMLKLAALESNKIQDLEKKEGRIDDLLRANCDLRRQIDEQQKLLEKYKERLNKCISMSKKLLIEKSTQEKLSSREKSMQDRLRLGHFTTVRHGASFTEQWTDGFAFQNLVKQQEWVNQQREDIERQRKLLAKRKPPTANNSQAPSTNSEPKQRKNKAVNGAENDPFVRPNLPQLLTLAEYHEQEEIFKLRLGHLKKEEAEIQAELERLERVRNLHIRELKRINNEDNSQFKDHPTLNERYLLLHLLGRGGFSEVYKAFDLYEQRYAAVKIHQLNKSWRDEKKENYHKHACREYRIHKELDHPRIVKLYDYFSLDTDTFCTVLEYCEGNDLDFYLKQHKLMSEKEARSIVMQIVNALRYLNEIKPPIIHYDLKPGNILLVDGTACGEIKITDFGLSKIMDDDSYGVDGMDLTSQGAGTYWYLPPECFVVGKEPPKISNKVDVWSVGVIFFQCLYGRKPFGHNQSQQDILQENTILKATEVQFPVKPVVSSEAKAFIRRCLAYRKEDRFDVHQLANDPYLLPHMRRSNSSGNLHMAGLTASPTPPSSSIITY

[6] = test system: P388; assay: Antitumor activity against mouse P388 cells transplanted in DBA2/BDF1 mouse assessed as mean life span at 10 mg/kg, ip dosed daily for 5 days (reference value: 9.6 +/- 0.5 day); type: functional
[7] = molecular target: Serine/threonine-protein kinase pim-3 (Homo sapiens, UniProt Q86V86); assay: Inhibition of full length human N-terminal GST-HIS6-tagged PIM3 expressed in sf9 cells by flashplate based radiometric 33pan-quinase assay
[8] = test system: Calf thymus DNA; settings: Bos taurus
Description: Binding affinity to calf thymus DNA assessed as binding constant by Scatchard plot analysis

[9] = test system: P388; assay: Antitumor activity against mouse P388 cells transplanted in DBA2/BDF1 mouse assessed as mean life span at 50 mg/kg, ip dosed daily for 5 days relative to control; type: functional
[10] = test system: P388; assay: Antitumor activity against mouse P388 cells transplanted in DBA2/BDF1 mouse assessed as mean life span at 30 mg/kg, ip dosed daily for 5 days (reference value: 9.7 +/- 1.1 day); type: functional

| Compound | Activity [1] [mg] | Activity [2] [days] | Activity [3] [%] | Activity [4] [days] | IC50 [5] [µM] | Activity [6] [days] | IC50 [7] [µM] | Ka [8] [×10⁵ /M] | Activity [9] [%] | Activity [10] [days] |
| --- | --- | --- | --- | --- | --- | --- | --- | --- | --- | --- |
| CS(=O)(=O)O.Cc1oc2c(O)c3c(c(O)c2c1C(=O)N1CC[C@H](N)C1)C(=O)c1ccccc1C3=O | 87 | 25.2 | 40 | 21.3 | < 5 | 16.3 | < 5 | – | – | – |
| CS(=O)(=O)O.Cc1oc2c(O)c3c(c(O)c2c1C(=O)N1CC[C@@H](N)C1)C(=O)c1ccccc1C3=O | – | – | – | – | – | – | – | 5 | 178 | 11.8 |
